# Measurements from EP0782988A1, “INDOLE DERIVATIVES” (KYOWA HAKKO KOGYO CO., LTD., priority 1995, dated 1997).
# Test system: ovariectomized rats
# Assay: Inhibitory effect on the increase of urinary hydroxyproline excretion by ovariectomy (Test Example 1)
# Format: in vivo, SD strain rats
# Details: Rattus norvegicus, po, 336 h; ovariectomized female SD rats; test compound 10 mg/kg suspended in 0.3% Tween, orally once a day for two weeks; 24 h urine, hydroxyproline/creatinine molar ratio; versus ovariectomized control and sham-operated rats; read-out: Inhibition rate of increase of the amount of urinary hydroxyproline excretion
# Description: The inhibitory effect of the compounds of the present application on bone resorption was determined by their inhibitory effect on the excretion of urinary hydroxyproline which is elevated by ovariectomy of the animals tested, according to the report of Kalu et al. [Bone and Mineral., 14, 175 (1991)].
# Test Example 1: Inhibitory effect on the increase of urinary hydroxyproline excretion by ovariectomy
# 12-weeks-old female SD strain rats (Japan Clea Co., Ltd.) were acclimated for 1 week during which they were given tap water and a standard diet (F2; Funabashi Farmas) ad libitum. The experiment was carried out using the rats weighing 270-310 g. After the animals were subjected to sham operation or bilateral ovariectomy, they were allowed free access to water passed through ion exchange resin instead of tap water, and were housed in individual cages. The test compound (10 mg/kg) was suspended in 0.3% Tween, and the obtained suspension was orally administered to the ovariectomized rats once a day for two weeks starting from the day following ovariectomy (0.5 ml/100 g body weight). 0.3% Tween was similarly administered to sham-operated rats and ovariectomized control rats. After the final administration, the rats were placed in individual metabolic cages and fasted during 24 hours, and urine was collected. The volume of the collected urine was measured and the urine was centrifuged at 3,000 rpm for 15 min at 4°C. The concentration of hydroxyproline in the supernatant was measured by the method of Ikeda et al. [Ann. Rep. Tokyo Metr. Res. Lab. P. H., 36, 277-282 (1985)] and the concentration of creatinine in the supernatant was measured with creatinine test WAKO (Wako Pure Chem.) The amount of urinary hydroxyproline excretion was expressed by the molar ratio of the amount of hydroxyproline to the amount of creatinine. The rate of inhibition on increase of the amount of urinary hydroxyproline excretion in ovariectomized rats treated with the test compound compared to that of the control group was calculated using the following equation. Inhibition rate (%) = [(P1 - P2)/(P1 - P3)] x 100 [formula] • P1 : The amount of urinary hydroxyproline excretion in ovariectomized rats treated with 0.3% Tween (µmol/mmol). • P2 : The amount of urinary hydroxyproline excretion in ovariectomized rats treated with the test compound (µmol/mmol). • P3 : The amount of urinary hydroxyproline in sham-operated rats treated with 0.3% Tween (µmol/mmol).
row,Compound,inhibition in vivo at 10 mg/kg [%]
1,"CN(C)CCN(C)C(=O)c1c(C(c2ccc(O)cc2)c2ccc(O)cc2)c2ccccc2n1CCN(C)C [Compound 22, N-(2-Dimethylaminoethyl)-N-methyl-3-[bis(4-hydroxyphenyl)methyl]-1-(2-dimethylaminoethyl)indole-2-carboxamide]",100
2,"CN(C)CCn1c(C(=O)NCCN2CCCCC2)c(C(c2ccc(O)cc2)c2ccc(O)cc2)c2ccccc21 [Compound 25, N-(2-Piperidinoethyl)-3-[bis(4-hydroxyphenyl)methyl]-1-(2-dimethylaminoethyl)indole-2-carboxamide]",100
3,"CN(C)CCn1c(C(=O)NCCCN2CCOCC2)c(C(c2ccc(O)cc2)c2ccc(O)cc2)c2ccccc21 [Compound 27, N-(3-Morpholinopropyl)-3-[bis(4-hydroxyphenyl)methyl]-1-(2-dimethylaminoethyl)indole-2-carboxamide]",30
4,"CN(C)CCn1c(C(=O)NCc2cccnc2)c(C(c2ccc(O)cc2)c2ccc(O)cc2)c2ccccc21 [Compound 29, N-(3-Pyridylmethyl)-3-[bis(4-hydroxyphenyl)methyl]-1-(2-dimethylaminoethyl)indole-2-carboxamide]",30
5,"CN(C)CCn1c(C(=O)NCc2ccncc2)c(C(c2ccc(O)cc2)c2ccc(O)cc2)c2ccccc21 [Compound 30, N-(4-Pyridylmethyl)-3-[bis(4-hydroxyphenyl)methyl]-1-(2-dimethylaminoethyl)indole-2-carboxamide]",100
6,"CN(C)CCn1c(C(=O)NCCc2ccncc2)c(C(c2ccc(O)cc2)c2ccc(O)cc2)c2ccccc21 [Compound 32, N-[2-(4-Pyridyl)ethyl]-3-[bis(4-hydroxyphenyl)methyl]-1-(2-dimethylaminoethyl)indole-2-carboxamide]",100
7,"CCN1CCCC1CNC(=O)c1c(C(c2ccc(O)cc2)c2ccc(O)cc2)c2ccccc2n1CCN(C)C (stereo not drawn) [Compound 33, N-[(1-Ethyl-2-pyrrolidinyl)methyl]-3-[bis(4-hydroxyphenyl)methyl]-1-(2-dimethylaminoethyl)indole-2-carboxamide]",100
8,"CN(C)CCn1c(C(=O)NCCC2CCCN2C)c(C(c2ccc(O)cc2)c2ccc(O)cc2)c2ccccc21 (stereo not drawn) [Compound 34, N-[2-(1-Methyl-2-pyrrolidinyl)ethyl]-3-[bis(4-hydroxyphenyl)methyl]-1-(2-dimethylaminoethyl)indole-2-carboxamide]",100
9,"CN(C)CCn1c(C(=O)NCC2CCCO2)c(C(c2ccc(O)cc2)c2ccc(O)cc2)c2ccccc21 (stereo not drawn) [Compound 37, N-(2-Tetrahydrofuranylmethyl)-3-[bis(4-hydroxyphenyl)methyl]-1-(2-dimethylaminoethyl)indole-2-carboxamide]",100
